# Assay results reported in patent publication US9156845B2, “4-(substituted amino)-7H-pyrrolo[2,3-d] pyrimidines as LRRK2 inhibitors” (Pfizer Inc., priority 2012, dated 2015).
# Where two headings read alike, the source gives them in different places.
# Columns and labels:
# Assay in all cases: ActivX kinase probe assay (human PBMC)
# Assay type in all cases: binding
# CaMK2d = CaMK2d (Homo sapiens (Human), UniProt Q13557); settings: CaMK2d, read-out: percent inhibition
# EphA1 = EphA1 (Homo sapiens (Human), UniProt P21709); settings: EphA1, read-out: percent inhibition
# GCN2 = GCN2 (Homo sapiens (Human), UniProt Q9P2K8); settings: GCN2, read-out: percent inhibition
# LATS1 = LATS1 (Homo sapiens (Human), UniProt O95835); settings: LATS1, read-out: percent inhibition
# CaMK1a = CaMK1a (Homo sapiens (Human), UniProt Q14012); settings: CaMK1a, read-out: percent inhibition
# AMPKa1, AMPKa2 = test system: AMPKa1, AMPKa2
# IRAK3 = IRAK3 (Homo sapiens (Human), UniProt Q9Y616); settings: IRAK3, read-out: percent inhibition
# AKT2, AKT3 = test system: AKT2, AKT3
# MAST3 = MAST3 (Homo sapiens (Human), UniProt O60307); settings: MAST3, read-out: percent inhibition
# HPK1 = HPK1 (Homo sapiens (Human), UniProt Q92918); settings: HPK1, read-out: percent inhibition
# CDK2 = CDK2 (Homo sapiens (Human), UniProt P24941); settings: CDK2, read-out: percent inhibition
# BRAF = BRAF (Homo sapiens (Human), UniProt P15056); settings: BRAF, read-out: percent inhibition
# SRC = SRC (Homo sapiens (Human), UniProt P12931); settings: SRC, read-out: percent inhibition
# p70S6Kb = p70S6Kb (Homo sapiens (Human), UniProt Q9UBS0); settings: p70S6Kb, read-out: percent inhibition
# RSK1, RSK2, RSK3 domain1 = test system: RSK1, RSK2, RSK3 domain1
# MST3 = MST3 (Homo sapiens (Human), UniProt Q9Y6E0); settings: MST3, read-out: percent inhibition
# JAK1 domain2 = JAK1 domain2 (Homo sapiens (Human), UniProt P23458); settings: JAK1 domain2, read-out: percent inhibition
# GPRK6 = GPRK6 (Homo sapiens (Human), UniProt P43250); settings: GPRK6, read-out: percent inhibition
# MAP2K1 = MAP2K1 (Homo sapiens (Human), UniProt Q02750); settings: MAP2K1, read-out: percent inhibition
# MARK2 = MARK2 (Homo sapiens (Human), UniProt Q7KZI7); settings: MARK2, read-out: percent inhibition
# IRAK1 = IRAK1 (Homo sapiens (Human), UniProt P51617); settings: IRAK1, read-out: percent inhibition
# TAO1, TAO3 = test system: TAO1, TAO3
# PIP4K2C = PIP4K2C (Homo sapiens (Human), UniProt Q8TBX8); settings: read-out: percent inhibition
# JAK1 = JAK1 (Homo sapiens (Human), UniProt P23458); settings: JAK1, read-out: percent inhibition
# PYK2 = PYK2 (Homo sapiens (Human), UniProt Q14289); settings: PYK2, read-out: percent inhibition
# LKB1 = LKB1 (Homo sapiens (Human), UniProt Q15831); settings: LKB1, read-out: percent inhibition
# JNK1, JNK2, JNK3 = test system: JNK1, JNK2, JNK3
# FYN = FYN (Homo sapiens (Human), UniProt P06241); settings: FYN, read-out: percent inhibition
# OSR1 = OSR1 (Homo sapiens (Human), UniProt O95747); settings: OSR1, read-out: percent inhibition
# MAP3K5 = MAP3K5 (Homo sapiens (Human), UniProt Q99683); settings: MAP3K5, read-out: percent inhibition
# IKKe = IKKe (Homo sapiens (Human), UniProt Q14164); settings: IKKe, read-out: percent inhibition
# RSK2 domain1 = RSK2 domain1 (Homo sapiens (Human), UniProt P51812); settings: RSK2 domain1, read-out: percent inhibition
# MAP2K3 = MAP2K3 (Homo sapiens (Human), UniProt P46734); settings: MAP2K3, read-out: percent inhibition
# p70S6K = p70S6K (Homo sapiens (Human), UniProt P23443); settings: p70S6K, read-out: percent inhibition
# Chain of PIP4K2C (Q8TBX8 whole entry): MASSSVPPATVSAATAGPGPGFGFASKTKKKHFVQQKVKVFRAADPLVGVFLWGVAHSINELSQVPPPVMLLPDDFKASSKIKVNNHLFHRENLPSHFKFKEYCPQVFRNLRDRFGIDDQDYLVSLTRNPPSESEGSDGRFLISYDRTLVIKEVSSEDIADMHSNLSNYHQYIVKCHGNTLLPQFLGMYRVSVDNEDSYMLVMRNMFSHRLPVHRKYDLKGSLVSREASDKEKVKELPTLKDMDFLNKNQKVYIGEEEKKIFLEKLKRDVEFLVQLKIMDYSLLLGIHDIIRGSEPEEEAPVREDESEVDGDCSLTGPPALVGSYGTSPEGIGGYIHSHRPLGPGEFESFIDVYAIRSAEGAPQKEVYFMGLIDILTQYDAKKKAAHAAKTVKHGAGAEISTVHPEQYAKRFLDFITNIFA
# Chain of MAP2K1 (Q02750 whole entry): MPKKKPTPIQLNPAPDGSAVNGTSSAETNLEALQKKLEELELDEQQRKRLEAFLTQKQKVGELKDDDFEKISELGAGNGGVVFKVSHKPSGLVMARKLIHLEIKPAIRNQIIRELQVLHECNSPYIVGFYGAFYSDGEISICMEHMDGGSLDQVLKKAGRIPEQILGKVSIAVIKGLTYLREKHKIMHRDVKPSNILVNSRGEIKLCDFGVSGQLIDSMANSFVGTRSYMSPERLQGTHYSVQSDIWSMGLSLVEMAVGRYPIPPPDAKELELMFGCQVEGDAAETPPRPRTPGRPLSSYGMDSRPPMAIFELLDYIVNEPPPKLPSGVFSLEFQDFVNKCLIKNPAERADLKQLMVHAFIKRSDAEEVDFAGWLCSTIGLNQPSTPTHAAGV
# Chain of MAP2K3 (P46734 whole entry): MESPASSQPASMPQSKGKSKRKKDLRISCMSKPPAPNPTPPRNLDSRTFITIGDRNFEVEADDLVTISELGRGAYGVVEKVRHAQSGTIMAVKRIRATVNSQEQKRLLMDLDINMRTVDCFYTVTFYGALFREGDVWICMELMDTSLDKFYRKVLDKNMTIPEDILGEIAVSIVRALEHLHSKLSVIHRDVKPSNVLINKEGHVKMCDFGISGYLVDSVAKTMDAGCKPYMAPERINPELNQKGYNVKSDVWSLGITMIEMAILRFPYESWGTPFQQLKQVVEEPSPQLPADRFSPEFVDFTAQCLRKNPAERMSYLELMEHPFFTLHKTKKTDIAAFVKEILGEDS
# Chain of MAST3 (O60307 whole entry): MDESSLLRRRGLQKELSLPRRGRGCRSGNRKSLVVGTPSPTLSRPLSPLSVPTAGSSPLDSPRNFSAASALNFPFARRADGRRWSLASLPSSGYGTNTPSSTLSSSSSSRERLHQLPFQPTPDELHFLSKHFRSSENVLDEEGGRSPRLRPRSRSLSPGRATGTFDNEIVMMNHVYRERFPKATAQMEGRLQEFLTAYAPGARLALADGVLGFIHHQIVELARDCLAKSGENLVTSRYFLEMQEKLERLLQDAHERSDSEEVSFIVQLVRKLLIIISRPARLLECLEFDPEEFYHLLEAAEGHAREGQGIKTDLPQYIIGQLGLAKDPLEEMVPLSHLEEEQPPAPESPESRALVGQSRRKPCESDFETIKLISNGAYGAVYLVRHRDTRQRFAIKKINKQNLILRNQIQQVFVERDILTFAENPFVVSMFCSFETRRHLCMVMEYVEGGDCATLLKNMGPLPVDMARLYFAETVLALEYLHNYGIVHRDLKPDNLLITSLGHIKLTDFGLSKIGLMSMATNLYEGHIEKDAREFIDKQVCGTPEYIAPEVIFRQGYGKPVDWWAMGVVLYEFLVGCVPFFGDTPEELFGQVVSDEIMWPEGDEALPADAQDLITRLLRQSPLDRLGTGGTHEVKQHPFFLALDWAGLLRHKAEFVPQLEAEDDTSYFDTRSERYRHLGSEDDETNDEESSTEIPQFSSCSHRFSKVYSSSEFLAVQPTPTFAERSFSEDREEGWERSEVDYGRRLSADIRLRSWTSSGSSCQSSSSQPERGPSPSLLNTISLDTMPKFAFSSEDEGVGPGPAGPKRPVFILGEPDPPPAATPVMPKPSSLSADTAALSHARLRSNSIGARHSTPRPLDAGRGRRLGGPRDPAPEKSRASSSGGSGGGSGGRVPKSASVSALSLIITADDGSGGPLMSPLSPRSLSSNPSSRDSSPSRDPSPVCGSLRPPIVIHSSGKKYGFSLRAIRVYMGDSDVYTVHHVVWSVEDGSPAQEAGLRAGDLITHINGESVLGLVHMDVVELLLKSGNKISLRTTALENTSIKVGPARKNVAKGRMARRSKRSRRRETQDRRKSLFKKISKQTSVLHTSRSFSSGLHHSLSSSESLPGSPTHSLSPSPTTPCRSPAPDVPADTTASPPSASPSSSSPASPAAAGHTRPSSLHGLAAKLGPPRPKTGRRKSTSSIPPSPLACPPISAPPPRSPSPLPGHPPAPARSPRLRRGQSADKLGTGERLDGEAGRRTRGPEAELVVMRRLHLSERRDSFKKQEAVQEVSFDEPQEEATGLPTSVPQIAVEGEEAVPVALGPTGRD
# Chain of IRAK1 (P51617 whole entry): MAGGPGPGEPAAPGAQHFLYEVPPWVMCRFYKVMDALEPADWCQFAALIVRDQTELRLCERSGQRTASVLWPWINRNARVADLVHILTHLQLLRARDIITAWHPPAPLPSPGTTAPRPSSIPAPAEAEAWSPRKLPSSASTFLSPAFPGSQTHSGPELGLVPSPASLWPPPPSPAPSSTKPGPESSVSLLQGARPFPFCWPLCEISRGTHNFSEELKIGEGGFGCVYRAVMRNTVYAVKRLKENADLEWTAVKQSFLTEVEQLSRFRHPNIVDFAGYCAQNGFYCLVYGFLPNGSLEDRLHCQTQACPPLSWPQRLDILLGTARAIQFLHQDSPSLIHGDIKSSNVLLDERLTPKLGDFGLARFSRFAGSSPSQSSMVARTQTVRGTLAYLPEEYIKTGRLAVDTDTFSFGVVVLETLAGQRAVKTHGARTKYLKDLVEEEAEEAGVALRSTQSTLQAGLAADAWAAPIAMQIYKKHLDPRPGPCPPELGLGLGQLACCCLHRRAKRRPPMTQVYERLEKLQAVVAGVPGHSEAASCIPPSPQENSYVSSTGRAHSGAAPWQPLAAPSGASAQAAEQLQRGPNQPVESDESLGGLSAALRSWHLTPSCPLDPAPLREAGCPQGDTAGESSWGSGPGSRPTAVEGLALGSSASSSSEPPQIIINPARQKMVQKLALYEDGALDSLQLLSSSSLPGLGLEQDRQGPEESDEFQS
# Chain of EphA1 (P21709 26-976): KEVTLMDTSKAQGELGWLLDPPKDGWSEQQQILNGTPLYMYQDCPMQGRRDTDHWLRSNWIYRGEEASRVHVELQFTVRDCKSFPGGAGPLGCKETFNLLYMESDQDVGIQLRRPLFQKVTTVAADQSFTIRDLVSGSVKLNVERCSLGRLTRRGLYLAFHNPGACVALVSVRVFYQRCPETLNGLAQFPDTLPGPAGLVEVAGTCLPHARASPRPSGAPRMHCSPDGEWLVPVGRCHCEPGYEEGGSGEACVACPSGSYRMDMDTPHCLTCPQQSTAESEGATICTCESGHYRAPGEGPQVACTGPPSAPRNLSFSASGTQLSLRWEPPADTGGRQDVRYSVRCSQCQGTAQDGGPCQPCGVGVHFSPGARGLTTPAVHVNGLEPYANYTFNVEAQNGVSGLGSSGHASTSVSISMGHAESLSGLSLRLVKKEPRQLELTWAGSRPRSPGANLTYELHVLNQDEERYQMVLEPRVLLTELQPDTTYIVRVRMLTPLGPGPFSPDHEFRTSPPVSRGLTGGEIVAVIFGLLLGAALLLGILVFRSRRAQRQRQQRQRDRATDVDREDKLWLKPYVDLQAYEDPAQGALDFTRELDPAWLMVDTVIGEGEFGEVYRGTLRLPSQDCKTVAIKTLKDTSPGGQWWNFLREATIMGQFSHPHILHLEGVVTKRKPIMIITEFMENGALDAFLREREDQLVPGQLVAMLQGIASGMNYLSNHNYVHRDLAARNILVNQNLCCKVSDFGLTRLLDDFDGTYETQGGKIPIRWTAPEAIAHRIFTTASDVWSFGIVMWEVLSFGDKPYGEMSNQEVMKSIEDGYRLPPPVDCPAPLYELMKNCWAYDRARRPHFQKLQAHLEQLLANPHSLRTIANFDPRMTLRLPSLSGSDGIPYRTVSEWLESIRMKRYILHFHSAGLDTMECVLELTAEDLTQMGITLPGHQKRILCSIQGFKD
# Chain of IKKe (Q14164 whole entry, the tested form may be a part): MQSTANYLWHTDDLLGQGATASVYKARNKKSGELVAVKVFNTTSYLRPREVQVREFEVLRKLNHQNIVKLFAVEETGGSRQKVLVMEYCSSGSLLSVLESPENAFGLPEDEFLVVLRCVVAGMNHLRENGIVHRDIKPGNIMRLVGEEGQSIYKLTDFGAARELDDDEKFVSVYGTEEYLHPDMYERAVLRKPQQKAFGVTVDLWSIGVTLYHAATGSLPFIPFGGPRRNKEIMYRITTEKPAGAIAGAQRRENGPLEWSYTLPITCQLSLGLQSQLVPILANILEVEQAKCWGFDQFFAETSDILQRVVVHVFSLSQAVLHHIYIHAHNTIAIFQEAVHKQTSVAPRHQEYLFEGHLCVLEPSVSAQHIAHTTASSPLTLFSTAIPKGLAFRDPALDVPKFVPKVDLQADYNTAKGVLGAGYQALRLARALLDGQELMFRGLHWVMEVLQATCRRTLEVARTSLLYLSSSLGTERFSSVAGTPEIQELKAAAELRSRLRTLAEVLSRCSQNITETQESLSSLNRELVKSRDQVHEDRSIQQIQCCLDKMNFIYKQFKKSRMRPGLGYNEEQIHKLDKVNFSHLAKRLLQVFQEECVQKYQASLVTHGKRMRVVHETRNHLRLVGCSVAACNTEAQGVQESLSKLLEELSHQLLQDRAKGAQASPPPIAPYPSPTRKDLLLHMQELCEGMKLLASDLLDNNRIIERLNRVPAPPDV
smiles,measurement,setting,value
"Cn1cc(-c2c[nH]c3ncnc(N4CCOCC4)c23)cc1C#N [Example 217, 1-methyl-4-[4-(morpholin-4-yl)-7H-pyrrolo[2,3-d]pyrimidin-5-yl]-1H-pyrrole-2-carbonitrile]",inhibition at 0.1 µM,CaMK2d; 0.1 μM,9.8%
same,inhibition at 1 µM,CaMK2d; 1 μM,16.1%
same,inhibition at 0.1 µM,EphA1; 0.1 μM,11.1%
same,inhibition at 1 µM,EphA1; 1 μM,-16.1%
same,inhibition at 0.1 µM,GCN2; 0.1 μM,-7.7%
same,inhibition at 1 µM,GCN2; 1 μM,-3.1%
same,inhibition at 0.1 µM,LATS1; 0.1 μM,-3.9%
same,inhibition at 1 µM,LATS1; 1 μM,1.9%
same,inhibition at 0.1 µM,CaMK1a; 0.1 μM,-5.4%
same,inhibition at 1 µM,CaMK1a; 1 μM,-7.1%
same,percent inhibition,"AMPKa1, AMPKa2; 0.1 μM",5.7%
same,percent inhibition,"AMPKa1, AMPKa2; 1 μM",16.5%
same,inhibition at 0.1 µM,IRAK3; 0.1 μM,16%
same,inhibition at 1 µM,IRAK3; 1 μM,72.4%
same,percent inhibition,"AKT2, AKT3; 0.1 μM",−9.7%
same,percent inhibition,"AKT2, AKT3; 1 μM",−3.8%
same,inhibition at 0.1 µM,MAST3; 0.1 μM,-11.7%
same,inhibition at 1 µM,MAST3; 1 μM,0.4%
same,inhibition at 0.1 µM,HPK1; 0.1 μM,-13.7%
same,inhibition at 1 µM,HPK1; 1 μM,1.7%
same,inhibition at 0.1 µM,CDK2; 0.1 μM,3.6%
same,inhibition at 1 µM,CDK2; 1 μM,16.5%
same,inhibition at 0.1 µM,BRAF; 0.1 μM,-8.4%
same,inhibition at 1 µM,BRAF; 1 μM,-10.4%
same,inhibition at 0.1 µM,SRC; 0.1 μM,-1%
same,inhibition at 1 µM,SRC; 1 μM,1.1%
same,inhibition at 0.1 µM,p70S6Kb; 0.1 μM,-2.2%
same,inhibition at 1 µM,p70S6Kb; 1 μM,-16.7%
same,percent inhibition,"RSK1, RSK2, RSK3 domain1; 0.1 μM",5.0%
same,percent inhibition,"RSK1, RSK2, RSK3 domain1; 1 μM",48.5%
same,inhibition at 0.1 µM,MST3; 0.1 μM,6.7%
same,inhibition at 1 µM,MST3; 1 μM,10.9%
same,inhibition at 0.1 µM,JAK1 domain2; 0.1 μM,7.4%
same,inhibition at 1 µM,JAK1 domain2; 1 μM,10.1%
same,inhibition at 0.1 µM,GPRK6; 0.1 μM,-0.8%
same,inhibition at 1 µM,GPRK6; 1 μM,3.6%
same,inhibition at 0.1 µM,MAP2K1; 0.1 μM,17.2%
same,inhibition at 1 µM,MAP2K1; 1 μM,-1.5%
same,inhibition at 0.1 µM,MARK2; 0.1 μM,-5%
same,inhibition at 1 µM,MARK2; 1 μM,13.1%
same,inhibition at 0.1 µM,IRAK1; 0.1 μM,-1.7%
same,inhibition at 1 µM,IRAK1; 1 μM,7.5%
same,percent inhibition,"TAO1, TAO3; 0.1 μM",−9.7%
same,percent inhibition,"TAO1, TAO3; 1 μM",−16.5%
same,inhibition at 0.1 µM,PIP4K2C; PIP4K2C (first line of two),6.2%
same,inhibition at 1 µM,PIP4K2C; PIP4K2C (first line of two),-11.9%
same,inhibition at 0.1 µM,PIP4K2C; PIP4K2C (second line of two),-4.7%
same,inhibition at 1 µM,PIP4K2C; PIP4K2C (second line of two),4%
same,inhibition at 0.1 µM,JAK1; 0.1 μM,-3%
same,inhibition at 1 µM,JAK1; 1 μM,11.4%
same,inhibition at 0.1 µM,PYK2; 0.1 μM,-1%
same,inhibition at 1 µM,PYK2; 1 μM,8.4%
same,inhibition at 0.1 µM,LKB1; 0.1 μM,-5.3%
same,inhibition at 1 µM,LKB1; 1 μM,2.4%
same,percent inhibition,"JNK1, JNK2, JNK3; 0.1 μM",−18.2%
same,percent inhibition,"JNK1, JNK2, JNK3; 1 μM",−6.4%
same,inhibition at 0.1 µM,FYN; 0.1 μM,-2.1%
same,inhibition at 1 µM,FYN; 1 μM,-6.8%
same,inhibition at 0.1 µM,OSR1; 0.1 μM,5.2%
same,inhibition at 1 µM,OSR1; 1 μM,-12.3%
same,inhibition at 0.1 µM,MAP3K5; 0.1 μM,7%
same,inhibition at 1 µM,MAP3K5; 1 μM,44.5%
same,inhibition at 0.1 µM,IKKe; 0.1 μM,-3%
same,inhibition at 1 µM,IKKe; 1 μM,20.4%
same,inhibition at 0.1 µM,RSK2 domain1; 0.1 μM,13.2%
same,inhibition at 1 µM,RSK2 domain1; 1 μM,61.6%
same,inhibition at 0.1 µM,MAP2K3; 0.1 μM,2.5%
same,inhibition at 1 µM,MAP2K3; 1 μM,3.3%
same,inhibition at 0.1 µM,p70S6K; 0.1 μM,3.5%
same,inhibition at 1 µM,p70S6K; 1 μM,-9.6%
